Read-outs that look alike come from different tables or passages of the source.

Data set [1] has as its system renal proximal tubule epithelial cells (RPTEC). The data set can be described thus: Toxicity on normal cells (MTS), RPTEC. The conditions noted are these: for IC50: normal (kidney) cells, read-out: IC50 (μM) RPTEC (normal cells). In kind it is cell-based, human. The procedure:
(§1) The different aminosteroids were dissolved in methanol (50 mM).

The test system of data set [2] is LAPC-4 (prostate cancer) cells. Put plainly: Cell proliferation assay (MTS), LAPC-4. The conditions noted are these: Homo sapiens, LAPC4, 72 h, 3 days treatment, MTS; read-out: IC50 (μM) Prostate cancer LAPC-4. Format: cell-based. How it is done:
as §1

Data set [3] has as its system LNCaP (prostate cancer) cells. Put plainly: Cell proliferation assay (MTS), LNCaP. Format: cell-based. The conditions noted are these: Homo sapiens, 72 h, 3 days treatment, MTS, read-out: IC50 (μM) Prostate cancer LNCaP. How it is done:
as §1

The subject of data set [4] is MCF-7 breast cancer cells. The data set can be described thus: Cell proliferation assay (MTS), MCF-7. Format: cell-based, human. The conditions noted are these: Homo sapiens, MCF7, 72 h, 3 days treatment. The procedure:
as §1

The subject of data set [5] is PC-3 (prostate cancer) cells. Put plainly: Cell proliferation assay (MTS), PC-3. Format: cell-based. The conditions noted are these: 72 h; 3 days treatment, MTS; read-out: IC50 (μM) Prostate cancer PC-3. How it is done:
as §1

The test system of data set [6] is OVCAR-3 cells (ovarian cancer). Put plainly: Cell proliferation assay (MTS), OVCAR-3. In kind it is cell-based. The conditions noted are these: for IC50: 3 days treatment, MTS, read-out: IC50 (μM) Ovarian cancer OVCAR-3; for antiproliferative activity relative to RM-133, OVCAR-3: fold of RM-133 activity (>1 = more active). How it is done: as §1
The test system of data set [7] is Human pancreas cancer cells (PANC-1). Put plainly: Cell proliferation assay (MTS), PANC-1. Format: cell-based. The conditions noted are these: for IC50: 3 days treatment, MTS, read-out: IC50 (μM) Pancreatic cancer PANC-1; for antiproliferative activity relative to RM-133, PANC-1: fold of RM-133 activity (>1 = more active). How it is done:
as §1

The test system of data set [8] is T-47D breast cancer cell line. Put plainly: Cell proliferation assay (MTS), T-47D. The conditions noted are these: Homo sapiens, T47D, 72 h; 3 days treatment, MTS. Format: cell-based. The procedure: as §1
For data set [9], the system named is primary ovary normal cells. The data set can be described thus: cells. In kind it is cell-based, human. The conditions noted are these: for Selectivity Index Ovary: IC50 normal cells/IC50 cancer cells (primary ovary / OVCAR-3); for IC50: human normal cells, read-out: IC50 (μM) Primary Ovary (normal cells). How it is done: as §1
The test system of data set [10] is primary pancreas normal cells. The data set can be described thus: Toxicity on normal cells (MTS), primary pancreas. In kind it is cell-based, human. The conditions noted are these: for Selectivity Index Pancreas: IC50 normal cells/IC50 cancer cells (primary pancreas / PANC-1); for IC50: human normal cells; for times more toxic relative to RM-133, primary pancreas cells: human, 3 days. The procedure: as §1

In data set [11] the test system is HL-60 (acute promyelocytic leukemia) cells. The data set can be described thus: Cell proliferation assay (MTS), HL-60. In kind it is cell-based. The conditions noted are these: for IC50: 3 days treatment, MTS, read-out: IC50 (μM) HL-60 (leukemia); for antiproliferative activity relative to RM-133, HL-60: fold of RM-133 activity (>1 = more active). The procedure:
as §1

For data set [12] the following is noted: human, 1 h.
Experimental: Assays were performed at 37° C. for 1 h, with or without 10 mM NADPH in the presence of 40 μg of human liver microsome from Corning (Melrose, Mass., USA) and 10 μM of aminosteroid substrate in a final 100 μL volume of 50 mM Tris buffer (pH 7.4) supplemented with 10 mM MgCl2. Assays were ended by adding 100 μL of MeOH followed by centrifugation at 13,000 g for 10 min to obtain a pellet of proteins. The supernatant of 2 assays was pooled and submitted to HPLC-MS analysis (Shimadzu LCMS-2020 APCI, Alltima HP C18 (250 mm×4.6 mm, 5 μm) column, MeOH:H2O gradient). Remaining substrate (expressed in %) was calculated by dividing the area under the curve of the substrate for the assays without NADPH by the area under the curve of the substrate for the assays with NADPH and multiplied by 100. Values represent the average of 2 independent experiments.

As for “(17β)-17-ethynyl-17-hydroxy-2-{4-[1-(quinolin-2-ylcarbonyl)-L-prolyl]piperazin-1-yl}estra-1,3,5(10)-trien-3-yl dimethylcarbamate [Compound 1]”, in data set [1] (normal cells), the “more cytotoxic relative to RM-133, RPTEC” value came out at 5.0 fold.

As to `C#C[C@@]1(O)CC[C@H]2[C@@H]3CCc4cc(OC)c(C(=O)N5CCN(C(=O)[C@@H]6CCCN6C(=O)c6ccc7ccccc7n6)CC5)cc4[C@H]3CC[C@@]21C` [Compound 25, [(17β)-17-ethynyl-17-hydroxy-3-methoxyestra-1,3,5(10)-trien-2-yl](4-{[(2S)-1-(quinolin-2-ylcarbonyl)pyrrolidin-2-yl]carbonyl}piperazin-1-yl)methanone], the IC50 was found to be 0.5 ± 0.2 µM in [2]; 0.8 ± 0.2 µM in data set [3]; 2.2 ± 0.1 µM in data set [4]; 1.7 ± 0.4 µM in data set [5]; 5.2 ± 1.6 µM in data set [6] (Homo sapiens, OVCAR-3, 72 h); 3.5 ± 0.4 µM in data set [7] (Homo sapiens, PANC-1, 72 h). The compound further displayed an IC50 in [8] of 0.3 ± 0.2 µM.

Regarding `C#C[C@@]1(O)CC[C@H]2[C@@H]3CC[C@H]4CC(=O)[C@@H](N5CCN(C(=O)[C@@H]6CCCN6C(=O)c6ccc7ccccc7n6)CC5)C[C@]4(C)[C@H]3CC[C@@]21C` [2 (ketone), (2β,5α,17α)-17-hydroxy-2-(4-{[(2S)-1-(quinolin-2-ylcarbonyl)pyrrolidin-2-yl]carbonyl}piperazin-1-yl)pregn-20-yn-3-one], in data set [9], the “Selectivity Index Ovary” value was 5.5. Besides, the IC50 in data set [9] is 15 µM; in data set [10], 5.41 µM; in data set [1] (Homo sapiens, RPTEC) it was 20.7 µM; in data set [11] (Homo sapiens, HL-60, 72 h) it was 6.52 µM; in data set [6] (Homo sapiens, OVCAR-3, 72 h), 2.75 µM; in data set [7] (Homo sapiens, PANC-1, 72 h), 7.01 µM. In data set [10], the “Selectivity Index Pancreas” value was found to be 0.8. The “times more toxic relative to RM-133, primary pancreas cells” value in data set [10] stood at 1.7 times. Also, in data set [6], the “antiproliferative activity relative to RM-133, OVCAR-3” value is 2 fold.

On to `C#C[C@@]1(O)CC[C@H]2[C@@H]3CC[C@H]4CC(=O)C(N5CCN(C(=O)[C@@H]6CCCN6C(=O)c6ccc7ccccc7n6)CC5)=C[C@]4(C)[C@H]3CC[C@@]21C` [1 (enone), (5α,17α)-17-hydroxy-2-(4-{[(2S)-1-(quinolin-2-ylcarbonyl)pyrrolidin-2-yl]carbonyl}piperazin-1-yl)pregn-1-en-20-yn-3-one], for which the “Selectivity Index Ovary” value in data set [9] was 38. For the same compound, the IC50 in data set [9] is 9.12 µM; in data set [2] it was 0.03 µM; in data set [3], 0.002 µM; in data set [10], 2.2 µM; in data set [1] (Homo sapiens, RPTEC) it was 4.5 to 15.3 µM; in [1], 4.55 µM. For the same compound, the IC50 in [5] was found to be 0.002 µM; in data set [11] (Homo sapiens, HL-60, 72 h) it was 3.16 µM; in [6] (Homo sapiens, OVCAR-3, 72 h) it was 0.24 µM; in data set [7] (listed as Enone 1), 0.6 µM; in data set [7] (Homo sapiens, PANC-1, 72 h), 0.59 µM. Moreover, in data set [9] (human, 3 days), the “times more toxic relative to RM-133, primary ovary cells” value is given as 1.6 times. In data set [10], the “Selectivity Index Pancreas” value is on record as 3.7. Besides, in data set [10], the “times more toxic relative to RM-133, primary pancreas cells” value was found to be 4.3 times. Also, in data set [11], the “antiproliferative activity relative to RM-133, HL-60” value stood at 2.3 fold. Also, the “antiproliferative activity relative to RM-133, OVCAR-3” value in data set [6] is recorded as 22.9 fold. In addition, the “antiproliferative activity relative to RM-133, PANC-1” value in data set [7] is listed as 11.3 fold.

In the case of `C#C[C@@]1(O)CC[C@H]2[C@@H]3CC[C@H]4C[C@@H](N5CCN(C(=O)[C@@H]6CCCN6C(=O)c6ccc7ccccc7n6)CC5)CC[C@]4(C)[C@H]3CC[C@@]21C` [15 (side-chain at 3β), {4-[(3β,5α,17α)-17-hydroxypregn-20-yn-3-yl]piperazin-1-yl}[(2S)-1-(quinolin-2-ylcarbonyl)pyrrolidin-2-yl]methanone], the “metabolic stability (% of remaining compound)” value in data set [12] (microsomes, 10 μM, pH 7.4) is “little to no variation on the metabolic stability relative to RM-133”. For the same compound, the IC50 was above 50 µM in data set [11] (Homo sapiens, HL-60, 72 h); above 50 µM in [6] (Homo sapiens, OVCAR-3, 72 h); above 50 µM in data set [7] (Homo sapiens, PANC-1, 72 h). Moreover, the “antiproliferative activity relative to RM-133, HL-60” value in [11] was “completely inactive”. Also, in data set [6], the “antiproliferative activity relative to RM-133, OVCAR-3” value was “completely inactive”. Further, in [7], the “antiproliferative activity relative to RM-133, PANC-1” value is “completely inactive”.

With `C#C[C@]1(O)CC[C@H]2[C@@H]3CCc4cc(OC)c(CN5CCN(C(=O)[C@@H]6CCCN6C(=O)c6ccc7ccccc7n6)CC5)cc4[C@H]3CC[C@@]21C` [Compound 29], the IC50 in data set [2] came to 0.7 ± 0.2 µM; in [3], 1.3 ± 0.5 µM; in [4], 2.3 ± 0.6 µM; in [5], 1.7 ± 0.3 µM; in data set [6] (Homo sapiens, OVCAR-3, 72 h) it was 5 ± 0.2 µM; in data set [7] (Homo sapiens, PANC-1, 72 h), 2.6 ± 0.7 µM. This compound also gave a concentration for half-maximal inhibition (IC50) in data set [8] of 0.4 ± 0.2 µM.

“(2β,3α,5α,17α)-3,17-dihydroxy-2-(1-methyl-4-t[(2S)-1-(quinolin-2-ylcarbonyl) pyrrolidin-2-yl]carbonylpiperazin-1-ium-1-yl)pregn-20-yne iodide [6 (CH3-salt)]”: the “increased metabolic stability relative to RM-133” value in data set [12] (microsomes) was 2.4 fold. In addition, in data set [11], the IC50 was above 50 µM and the “antiproliferative activity relative to RM-133, HL-60” value is recorded as “significant loss of activity”. Further, in data set [6], the IC50 is above 50 µM and the “antiproliferative activity relative to RM-133, OVCAR-3” value is on record as “significant loss of activity”. Besides, in [7], the IC50 is above 50 µM and the “antiproliferative activity relative to RM-133, PANC-1” value is listed as “significant loss of activity”.

Regarding “(17β)-17-ethynyl-17-hydroxy-2-{4-[1-(quinolin-2-ylcarbonyl)-L-prolyl]piperazin-1-yl}estra-1,3,5(10)-trien-3-yl dihydrogen phosphate [Compound 5]”, the “times less toxic relative to RM-133, primary ovary cells” value in data set [9] (normal cells) was found to be 1.7 times. Also, in data set [10] (normal cells), the “times less toxic relative to RM-133, primary pancreas cells” value was found to be 1.8 times.

`C#C[C@@]1(O)CC[C@H]2[C@@H]3CC[C@H]4C[C@H](OC(=O)N(C)C)CC[C@]4(C)[C@H]3CC[C@@]21C` [12 (no side-chain; and 3-carbamate), (3α,5α,17α)-17-hydroxypregn-20-yn-3-yl dimethylcarbamate]: the IC50 was 15.2 µM in [11] (Homo sapiens, HL-60, 72 h); 48.1 µM in data set [6] (Homo sapiens, OVCAR-3, 72 h); above 50 µM in data set [7] (Homo sapiens, PANC-1, 72 h). Moreover, in data set [11], the “antiproliferative activity relative to RM-133, HL-60” value is “inactive”. The “antiproliferative activity relative to RM-133, OVCAR-3” value in data set [6] was “inactive”. Further, in data set [7], the “antiproliferative activity relative to RM-133, PANC-1” value was “inactive”.

In the case of “(3α,5α,17α)-pregn-20-yne-3,17-diol [11 (no side-chain; and 3α-OH)]”, in data set [11], the half-maximal inhibitory concentration (IC50) is above 50 µM and the “antiproliferative activity relative to RM-133, HL-60” value is “inactive”. Moreover, in data set [6], the IC50 is above 50 µM and the “antiproliferative activity relative to RM-133, OVCAR-3” value was “inactive”. Further, in data set [7], the IC50 was above 50 µM and the “antiproliferative activity relative to RM-133, PANC-1” value was “inactive”.

In the case of `C#C[C@@]1(O)CC[C@H]2[C@@H]3CCc4cc(OS(N)(=O)=O)c(N5CCN(C(=O)[C@@H]6CCCN6C(=O)c6ccc7ccccc7n6)CC5)cc4[C@H]3CC[C@@]21C` [Compound 4, (17β)-17-ethynyl-17-hydroxy-2-{4-[1-(quinolin-2-ylcarbonyl)-L-prolyl]piperazin-1-yl}estra-1,3,5(10)-trien-3-yl sulfamate], the “times less toxic relative to RM-133, primary ovary cells” value in [9] turned out to be 2.9 times. Further, the IC50 in [2] was 0.3 ± 0.2 µM; in data set [3] it was 0.9 ± 0.3 µM; in data set [4], 1.2 ± 0.4 µM; in data set [5], 1.6 ± 0.1 µM; in data set [6] (Homo sapiens, OVCAR-3, 72 h) it was 3.1 ± 0.5 µM; in [7] (Homo sapiens, PANC-1, 72 h), 3 ± 0.2 µM. The compound further yielded a 50% inhibitory concentration (IC50) in [8] of 0.2 ± 0.01 µM. Moreover, the “times less toxic relative to RM-133, primary pancreas cells” value in [10] is on record as 3.2 times. For the same compound, the “phenolic metabolite RM-581-OH (stability of potential prodrugs to hydrolysis)” value in [12] (10 μM, pH 7.4) is reported as “no trace of the phenolic metabolite RM-581-OH could be observed”.

For the origin of these results see patent US11174282B2, “Aminosteroid derivatives and process for producing same” (UNIVERSITÉ LAVAL, priority 2016, dated 2021).
